Patent US20250263370A1 (Tay Therapeutics Limited, priority 2022, published 2025)
Several values for one entry are separate records, joined by “and”; a condition that tells them apart may be missing. Equal values may be shown once. Marks after values point to notes of the source that are not given here.

Assays:
[1] = tested on: rat anti-collagen IgG1 antibodies; experiment: Rat anti-collagen IgG1 antibodies in serum of CIA rats at day 21; assay type: in vivo, Lewis rat
Procedure: Blood was additionally collected from groups 1-7 via cardiac puncture following euthanasia on Day 21. […] Serum was divided into two separate tubes and stored at −75±15° C. One tube was used to analyze IgG1, and the other tube was reserved for additional analyses.

[2] = tested on: collagen-induced arthritis; conditions: rat, in vivo, po
Procedure: Prior to be randomly placed in treatment groups, animals were weighed, and paw volume was measured. Once randomly assigned to treatment groups, on Day 0, animals in groups 2-9 were immunized by subcutaneous injection at the base of the tail.
The immunization comprised 100 μL of the CFA+Collagen emulsion (prepared according to the method in Experimental Method A). Animals in group one received no immunization. Seven days after the first injection, animals in groups 2-9 received a booster immunization comprising 200 μL of the IFA+Collagen emulsion (prepared according to the method in Experimental Method A).
Starting on Day 0, animals in group 1 and 2 were administered daily doses of the vehicle per os (P.O.) for 21 days. […] The twice daily doses for animals in groups 4-9 were 8 hours apart (e.g., the first dose at 8:00 AM and the second dose at 4:00 PM).
Body weight of all animals was recorded daily for the 21-day period. Blind clinical scores on all four limbs were conducted for all animals in the study. Animals were assessed prior to receiving their first dose of the compound or control, and scores for each limb were combined to a total daily score for each animal. Clinical score assessments were performed on Day 0, 6, 12, 13, 14, 15, 18, 19, and 21 (for a total of 9 daily scores).
Paw volume was recorded for each animal on Day 0, 6, 12, 13, 14, 15, 18, 19, and 21 (for a total of 9 measurements). To measure paw volume, animals were gently held with one hand while the hind paw was placed into a plethysmometer with the other hand. Lipid displacement by the paw was recorded and used to represent paw volume.
All data measured and recorded was analyzed using SPSS 16.0 software. Groups were compared using one-way ANOVA and significance was set at p<0.05.

[3] = tested on: collagen-induced arthritis; experiment: Histopathologic analysis of H&E-stained hind limbs of CIA rats; assay type: in vivo, Lewis rat; conditions: for pathologic observations after microscopic evaluation, overall: CIA rats, daily P.O. for 21 days
Source text: Hind limbs were collected following euthanasia, with the left limb being used for H&E staining.
H&E-stained slides of designated tissues from animals were transferred to an independent pathologist for microscopic evaluation (SPFBio). Samples were assigned the histologic grades based on the severity of change from tissue where CIA was not induced. Histology grades assigned were as follows: grade 1 (minimal change), grade 2 (mild change), grade 3 (moderate change), grade 4 (marked change), and grade 5 (severe change).
Moderate inflammation was also associated with increased edema fluid, fibrin, and cellular debris. Marked mixed cell inflammation was characterized by dense, widespread accumulations of neutrophils and macrophages with lesser number of lymphocytes within one or more joint spaces, synovium and periarticular soft tissues. Marked inflammation was also associated with abundant edema fluid, fibrin, and cellular debris.
Marked granulation tissue (pannus) was associated with inflammation and was characterized by widespread fibrovascular connective tissue that expanded/replaced the periarticular soft tissues of one or more joints, extended into/expanded joint spaces, was contiguous with areas of erosion/ulcer in articular cartilage and/or increased eroded surface of bone, and variably extended along the diaphysis.
Instances of minimal increased eroded surface were not associated with fragments of bone contiguous and/or surrounded by granulation tissue. […] In some areas, increased eroded surfaces were contiguous with areas of erosion/ulcer in the articular cartilages. Instance of marked increased eroded surface were often associated with fragments of bone contiguous with and/or surrounded by granulation tissue.
This observation was typically most pronounced at joint margins (transition zone). The ulceration was often associated with inflammation and granulation tissue extending through the defect to the subchondral bone.
Marked increased periosteal bone (periosteal bone formation) was characterized by extensive areas of increased bone matrix and numerous prominent osteoblasts lining trabecular surfaces along the metaphysis and/or diaphysis of one or more bones. In some areas, increased periosteal bone was contiguous with increased eroded surface and/or erosion/ulcer at articular cartilage.

[4] = hind limbs, CIA induced, 8 animals examined

## C[C@@H]1C[C@H]2[C@@H]3CCC4=CC(=O)C=C[C@]4(C)[C@@]3(F)[C@@H](O)C[C@]2(C)[C@@]1(O)C(=O)CO [dexamethasone]
[1]; Group 3 (CIA + Dex), day 21, group mean
  Average rat anti-collagen IgG1 levels, Mean: 7833.69*
[1]; Group 3 (CIA + Dexamethasone), day 21, per animal
  Final Rat Anti-Collagen IgG1 Antibody Con.: 22019.88 units/ml and 5250.27 units/ml and 1296.14 units/ml and 2541.14 units/ml and 4553.59 units/ml and 7925.50 units/ml and 7346.16 units/ml
[1]; before multiplying by Fold 2000, Group 3 (CIA + Dexamethasone), day 21, per animal
  Rat Anti-Collagen IgG1 Antibody Con.: 11.01 units/ml and 2.63 units/ml and 0.65 units/ml and 1.27 units/ml and 5.87 units/ml and 2.28 units/ml and 3.96 units/ml and 3.67 units/ml
[2]
  body weight over the course of the study: did not exhibit weight gains over the first 13 days of the study
[3]
  pathologic observations after microscopic evaluation, overall: No pathologic observations were noted
[3]; listed as Dexamethasone
  pathologic observations after microscopic evaluation, overall: no histopathological observations noted
[3]; [4]
  Number of animals: Erosion/Ulcer, cartilaginous, Marked: 0
  Number of animals: Erosion/Ulcer, cartilaginous, Mild: 0
  Number of animals: Erosion/Ulcer, cartilaginous, Minimal: 0
  Number of animals: Erosion/Ulcer, cartilaginous, Moderate: 0
  Number of animals: Granulation tissue, Marked: 0
  Number of animals: Granulation tissue, Mild: 0
  Number of animals: Granulation tissue, Minimal: 0
  Number of animals: Granulation tissue, Moderate: 0
  Number of animals: Increased bone, periosteum, Marked: 0
  Number of animals: Increased bone, periosteum, Mild: 0
  Number of animals: Increased bone, periosteum, Minimal: 0
  Number of animals: Increased bone, periosteum, Moderate: 0
  Number of animals: Increased eroded surface, bone, Marked: 0
  Number of animals: Increased eroded surface, bone, Mild: 0
  Number of animals: Increased eroded surface, bone, Minimal: 0
  Number of animals: Increased eroded surface, bone, Moderate: 0
  Number of animals: Mixed cell inflammation, Marked: 0
  Number of animals: Mixed cell inflammation, Mild: 0
  Number of animals: Mixed cell inflammation, Minimal: 0
  Number of animals: Mixed cell inflammation, Moderate: 0
  Number of animals: No Visible Lesions: 8
